The results in this text go back to patent US20200392158A1, “INHIBITORS OF LEUCINE RICH REPEAT KINASE 2” (GLAXOSMITHKLINE INTELLECTUAL PROPERTY DEVELOPMENT LIMITED, priority 2017, published 2020).

Some results are limits rather than exact numbers.

The target of the experiment is T1, full length G2019 human LRRK2 (Homo sapiens, UniProt Q5S007, R50H).
T1 construct: made in house; host or cells: HEK293 6E cells transduced with BacMam virus (virus generated in Sf9 cells)
T1 sequence (Q5S007 with tags, fused parts or gaps R50H): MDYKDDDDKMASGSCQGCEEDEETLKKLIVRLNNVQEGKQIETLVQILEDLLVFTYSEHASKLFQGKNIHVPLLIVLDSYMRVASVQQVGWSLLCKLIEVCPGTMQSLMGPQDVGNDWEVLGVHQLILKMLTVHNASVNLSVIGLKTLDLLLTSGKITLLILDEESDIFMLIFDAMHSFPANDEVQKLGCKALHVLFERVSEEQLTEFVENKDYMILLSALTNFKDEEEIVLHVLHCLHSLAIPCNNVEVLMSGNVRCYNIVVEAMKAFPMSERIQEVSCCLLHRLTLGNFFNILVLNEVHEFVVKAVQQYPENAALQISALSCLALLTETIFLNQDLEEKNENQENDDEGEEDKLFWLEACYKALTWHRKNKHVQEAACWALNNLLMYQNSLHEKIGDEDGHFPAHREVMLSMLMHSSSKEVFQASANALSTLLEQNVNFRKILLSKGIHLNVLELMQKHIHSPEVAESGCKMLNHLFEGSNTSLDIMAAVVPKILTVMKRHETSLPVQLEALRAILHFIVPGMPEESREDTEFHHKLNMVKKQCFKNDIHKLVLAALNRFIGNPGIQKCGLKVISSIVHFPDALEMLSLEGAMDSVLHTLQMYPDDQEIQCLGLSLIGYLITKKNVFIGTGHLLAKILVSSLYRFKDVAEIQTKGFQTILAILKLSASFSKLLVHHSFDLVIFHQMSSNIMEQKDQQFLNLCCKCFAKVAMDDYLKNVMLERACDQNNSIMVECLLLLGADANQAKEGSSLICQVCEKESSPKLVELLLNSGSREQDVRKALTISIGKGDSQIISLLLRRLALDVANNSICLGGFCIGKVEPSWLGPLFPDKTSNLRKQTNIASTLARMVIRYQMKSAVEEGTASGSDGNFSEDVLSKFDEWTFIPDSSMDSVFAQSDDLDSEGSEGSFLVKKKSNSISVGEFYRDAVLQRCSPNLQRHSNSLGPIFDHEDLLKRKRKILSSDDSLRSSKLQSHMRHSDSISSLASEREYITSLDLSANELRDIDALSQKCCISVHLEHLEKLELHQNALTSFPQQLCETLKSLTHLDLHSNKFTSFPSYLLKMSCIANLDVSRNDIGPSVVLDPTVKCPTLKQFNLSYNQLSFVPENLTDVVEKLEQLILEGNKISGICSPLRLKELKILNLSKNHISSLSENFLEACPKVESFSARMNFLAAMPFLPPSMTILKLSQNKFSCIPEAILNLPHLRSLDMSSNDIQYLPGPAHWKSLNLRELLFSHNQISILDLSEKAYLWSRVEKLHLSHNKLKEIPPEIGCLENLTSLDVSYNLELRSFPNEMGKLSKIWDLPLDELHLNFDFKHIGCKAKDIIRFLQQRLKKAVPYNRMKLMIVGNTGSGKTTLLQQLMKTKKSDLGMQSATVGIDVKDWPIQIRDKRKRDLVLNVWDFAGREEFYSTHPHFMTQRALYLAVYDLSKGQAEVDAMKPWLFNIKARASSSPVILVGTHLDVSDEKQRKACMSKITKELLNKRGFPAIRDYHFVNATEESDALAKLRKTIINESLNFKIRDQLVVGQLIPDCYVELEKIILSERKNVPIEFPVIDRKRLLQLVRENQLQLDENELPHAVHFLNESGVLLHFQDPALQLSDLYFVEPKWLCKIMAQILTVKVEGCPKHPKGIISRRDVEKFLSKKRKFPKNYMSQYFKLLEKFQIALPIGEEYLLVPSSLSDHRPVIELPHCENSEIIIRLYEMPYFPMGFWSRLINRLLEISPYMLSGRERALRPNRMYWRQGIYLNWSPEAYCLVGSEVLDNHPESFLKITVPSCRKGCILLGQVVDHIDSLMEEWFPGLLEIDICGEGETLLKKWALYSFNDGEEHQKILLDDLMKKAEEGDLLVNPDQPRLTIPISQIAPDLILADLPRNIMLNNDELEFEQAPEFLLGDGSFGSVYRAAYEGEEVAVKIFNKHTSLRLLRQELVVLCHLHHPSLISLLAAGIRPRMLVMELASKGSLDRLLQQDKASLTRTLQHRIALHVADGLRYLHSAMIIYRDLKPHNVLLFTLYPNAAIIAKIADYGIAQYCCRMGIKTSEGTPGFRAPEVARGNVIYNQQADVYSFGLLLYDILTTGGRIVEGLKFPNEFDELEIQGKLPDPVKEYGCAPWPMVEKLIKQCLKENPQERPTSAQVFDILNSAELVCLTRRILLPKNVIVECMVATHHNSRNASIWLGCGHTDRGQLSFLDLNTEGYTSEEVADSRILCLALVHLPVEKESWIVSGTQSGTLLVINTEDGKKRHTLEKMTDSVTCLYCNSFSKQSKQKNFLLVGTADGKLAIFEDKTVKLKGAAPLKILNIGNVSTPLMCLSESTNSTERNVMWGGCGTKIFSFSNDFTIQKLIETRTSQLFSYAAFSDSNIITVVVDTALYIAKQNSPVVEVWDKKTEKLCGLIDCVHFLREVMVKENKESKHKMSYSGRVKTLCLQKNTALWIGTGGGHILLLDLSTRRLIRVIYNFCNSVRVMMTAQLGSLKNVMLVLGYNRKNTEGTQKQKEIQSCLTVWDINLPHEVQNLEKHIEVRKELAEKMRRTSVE
Put plainly: Full length G2019 human LRRK2 inhibition mass spectrometry assay. Format: biochemical. Conditions: LRRKtide to phospho-LRRKtide conversion, RapidFire MS, 2 mM ATP. How it is done:
a. Full Length G2019 Human LRRK2 Inhibition Mass Spectrometry Assay
This assay for Leucine Rich Repeat Kinase 2 (LRRK2) inhibition is based on the direct measurement of the peptide ‘LRRKtide’ (LRRKtide: RLGRDKYKT*LRQIRQ and “*” refers to the site of phosphorylation.) and phosphorylated ‘LRRKtide’ using a high throughput Rapid Fire mass spectrometry assay. Inhibitors are compounds that reduce the conversion of LRRKtide to phospho-LRRKtide.
• 1) Compounds were dissolved in 100% DMSO at a concentration of 10 mM, and 11-point dose response curves generated using a 1 in 4 serial dilution in DMSO. 100 nL of this dilution series was then added to a 384 well, v bottom polypropylene plate (Greiner 781280), excluding columns 6 and 18. 100 nL of DMSO were added to column 6 to serve as the high control, while column 18 served as the low control containing assay buffer in place of the LRRK2 protein. Assay dilution gave a top final assay concentration of test compound of […] • 2) 5 μL of ‘enzyme solution’ containing 2× final assay concentration of purified recombinant Full length Flag-LRRK2 in assay buffer (50 mM Hepes, pH 7.2, 10 mM MgCl2, 150 mM NaCl, 5% glycerol, 0.0025% Triton X-100 and 1 mM DTT) were added to all wells using a Multidrop Combi dispenser (ThermoFisher Scientifiec), giving a final assay concentration of 25 nM LRRK2 enzyme (final concentration may vary depending on specific activity of different enzyme batches). • 3) 5 μL of substrate solution containing 50 μM LRRKtide peptide substrate and […] was added to all wells of the plate using a Multidrop Combi dispenser giving a final assay concentration of 25 μM LRRKtide peptide and 2 mM ATP. Test plates were then incubated for 1 hour at room temperature. (Incubation may vary depending on rate and linearity of reaction with different enzyme batches). • 4) 50 μl of 1% formic acid in laboratory grade water was added to all wells to quench the reaction, and plates were heat-sealed prior to centrifugation at 1348×g for 10 minutes. Test plates were then analysed on an Agilent RapidFire High Throughput solid phase extraction system coupled to AB Sciex API 4000 triple quadropole mass spectrometer with the following setting:
• Sip Height=2 mm, Aspirate=500 ms, Load time=3000 ms, Elution time=3000 ms, Requilibration=500 ms. • Flow rates: pump 1=1.5 mL/min, pump 2 1.25 mL/min pump 3=0.8 mL/min
Mass Spectrometer Settings: • LRRKtide Detection settings: Q1 mass 644.8 Da, Q3 mass 638.8, declustering potential 76 volts, collision energy 37 volts, CXP 34 volts. • Phospho-LRRKtide Detection settings: Q1 mass 671.4 Da, Q3 mass 638.8, Declustering potential 76 volts, Collision energy 37 volts, CXP 34 volts. • A C4 cartridge was used and running buffers were: A (aqueous) 0.1% formic acid in water B (organic) 0.1% formic acid, 80% acetonitrile, 20% water. • Collision gas: 12, Curtain gas: 25, Ion Source gas (1): 60, Ion Source gas (2): 60, Ion Spray Voltage: 5500, Temperature: 600, Interface Heater: ON. • Resolution Q1: low, Resolution Q3: low. • 5) Data were analysed using ActivityBase software (IDBS). A percent conversion from LRRKtide to Phospho-LRRKtide was calculated using the following formula:
% conversion=(Phospho-LRRKtide product peak area/(Phospho-LRRKtide product peak area+LRRKtide substrate peak area))*100 • A logistic 4 parameter curve fit was applied, using the following formula,
[formula] • Where x is the concentration of test sample, y is inhibition (%), a is the minimum, b is the Hill slope, c is the IC50 and d is the maximum. From this, the pIC50 was derived (−log IC50).
For orientation: IC50 means the point on the concentration scale where inhibition reaches its midpoint. For the molecule `CCC1CCOc2nn(C3CCOCC3)c(C)c2Nc2ncc(Cl)c(n2)N1` (single isomer, unassigned) [E19, 14-chloro-11-ethyl-4-methyl-5-(oxan-4-yl)-8-oxa-2,5,6,12,16,17-hexaazatricyclo[11.3.1.0^3,7]heptadeca-1(16),3,6,13(17),14-pentaene], the IC50 was not above 10 µM.
Molecule `Cc1c2c(nn1C1CCOCC1)OCCC(C)Nc1nc(ncc1Br)N2` (single isomer, unassigned) [E29, 14-bromo-4,11-dimethyl-5-(oxan-4-yl)-8-oxa-2,5,6,12,16,17-hexaaza tricyclo[11.3.1.0^3,7]heptadeca-1(16),3,6,13(17),14-pentaene] gave an IC50 not above 10 µM.
Take `Cc1c2c(nn1C1CCC(C)CC1)OCCCNc1nc(ncc1Cl)N2` (single isomer, unassigned) [E258, 14-Chloro-4-methyl-5-(4-methylcyclohexyl)-8-oxa-2,5,6,12,16,17-hexaazatricyclo[11.3.1.0^3,7]heptadeca-1(16),3,6,13 (17),14-pentaene]: the IC50 was not above 0.1 µM.
With `Cc1c2c(nn1C1CCOCC1(C)C)OCC[C@@H](C)Nc1nc(ncc1Cl)N2` (single isomer, unassigned) [E423] the figure was not above 0.1 µM.
`Cc1c2c(nn1C1CCC(N3C[C@H]4C[C@@H]3CO4)CC1)OCCC(C)Nc1nc(ncc1Cl)N2` (single isomer, unassigned) [E56] had an IC50 not above 10 µM.
Turning to `Cc1c2c(nn1C1CCCN(C3COC3)C1)OCC[C@@H](C)Nc1nc(ncc1Cl)N2` (single isomer, unassigned) [E68], the IC50 was not above 0.1 µM.
The molecule `COCC1CCOc2nn(C3CCOCC3F)c(C)c2Nc2ncc(Cl)c(n2)N1` (single isomer, unassigned) [E354, 14-Chloro-5-(3-fluorooxan-4-yl)-11-(methoxymethyl)-4-methyl-8-oxa-2,5,6,12,16,17-hexaazatricyclo [11.3. 1.0^3,7]heptadeca-1(16),3,6,13(17),14-pentaene] had an IC50 not above 0.1 µM.
`Cc1c2c(nn1C1CC(N3CCC(F)(F)C3)C1)OCCC(C)Nc1nc(ncc1Cl)N2` (single isomer, unassigned) [E315, 14-Chloro-5-[3-(3,3-difluoropyrrolidin-1-yl)cyclobutyl]-4,11-dimethyl-8-oxa-2,5,6,12,16,17-hexaazatricyclo [11.3.1.0^3,7]-heptadeca-1(16),3,6,13(17),14-pentaene] gave an IC50 not above 10 µM.
Consider `Cc1c2c(nn1C(C)(C)C#N)OCC[C@@H](C(C)C)Nc1nc(ncc1Cl)N2` [E323, 2-[(11S)-14-Chloro-4-methyl-11-(propan-2-yl)-8-oxa-2,5,6,12, 16,17-hexaazatricyclo[11.3.1.0^3,7]heptadeca-1(16),3,6,13(17),14-pentaen-5-yl]-2-methylpropanenitrile], for which the IC50 is not above 10 µM.
In the case of `Cc1c2c(nn1C1CCOCC1)OCC(C)C(C)Nc1nc(ncc1Cl)N2` (single isomer, unassigned) [E33, 14-chloro-4,10,11-trimethyl-5-(oxan-4-yl)-8-oxa-2,5,6,12,16,17-hexaazatricyclo [11.3.1.0^3,7]heptadeca-1(16),3,6,13(17),14-pentaene], the half-inhibitory concentration (IC50) was not above 10 µM.
With `COC1CNc2nc(ncc2Cl)Nc2c(nn(CC3CCOCC3)c2C)OC1` (single isomer, unassigned) [E275, 14-Chloro-10-methoxy-4-methyl-5-(oxan-4-ylmethyl)-8-oxa-2,5,6,12,16,17-hexaazatricyclo[11.3.1.0^3,7] heptadeca-1(16),3,6,13(17),14-pentaene] the figure was not above 10 µM; with `Cc1c2c(nn1C1CCC(C(F)(F)F)CC1)OCCC(C)Nc1nc(ncc1Cl)N2` (single isomer, unassigned) [E280, 4-Chloro-4,11-dimethyl-5-[4-(trifluoromethyl)cyclohexyl]-8-oxa-2,5,6,12,16,17-hexaazatricyclo[11.3.1.0^3,7] heptadeca-1(16),3,6,13(17),14-pentaene], not above 10 µM.
With `COCC1CCOc2nn(C3CCOCC3F)c(C)c2Nc2ncc(Cl)c(n2)N1` (single isomer, unassigned) [E353, 14-Chloro-5-(3-fluorooxan-4-yl)-11-(methoxymethyl)-4-methyl-8-oxa-2,5,6,12,16,17-hexaazatricyclo [11.3. 1.0^3,7]heptadeca-1(16),3,6,13(17),14-pentaene] the figure was not above 0.1 µM; with `COC1CCCC(n2nc3c(c2C)Nc2ncc(Cl)c(n2)NCCCO3)C1` (single isomer, unassigned) [E181, 14-Chloro-5-(3-methoxycyclohexyl)-4-methyl-8-oxa-2,5,6,12,16,17-hexaazatricyclo[11.3.1.0^3,7]heptadeca-1(16),3,6,13(17),14-pentaene], 100 µM.
`Cc1c2c(nn1C1CCC(C)CC1)OCCC(C)Nc1nc(ncc1Cl)N2` (single isomer, unassigned) [E262, 14-Chloro-4,11-dimethyl-5-(4-methylcyclohexyl)-8-oxa-2,5,6,12,16,17-hexaazatricyclo[11.3.1.0^3,7] heptadeca-1(16),3,6,13(17),14-pentaene] gave an IC50 not above 10 µM.
On to `Clc1cnc2nc1NCCCOc1nn(C3CCOC3)c(Cl)c1N2` (single isomer, unassigned) [E146, 4,14-Dichloro-5-(oxolan-3-yl)-8-oxa-2,5,6,12, 16,17-hexaaza tricyclo[11.3.1.0^3,7]heptadeca-1(16),3,6,13(17), 14-pentaene], for which the IC50 was not above 0.1 µM.
`N#Cc1cnc2nc1NCCCOc1n[nH]c(Cl)c1N2` [E426, 4-Chloro-8-oxa-2,5,6,12,16,17-hexaazatricyclo[11.3.1.0^3,7]heptadeca-1(16),3,6,13(17),14-pentaene-14-carbonitrile] had an IC50 not above 10 µM.
For the molecule `Cc1c2c(nn1CCN1C[C@H]3C[C@@H]1CO3)OCCC(C)Nc1nc(ncc1Cl)N2` (single isomer, unassigned) [E210], the IC50 is not above 0.1 µM.
For the molecule `Cc1c2c(nn1C1CN(C3CCCOC3)C1)OC[C@@H](F)[C@@H](C)Nc1nc(ncc1Cl)N2` (stereo partly drawn) [E390, (10S, 11R)-14-Chloro-10-fluoro-4,11-dimethyl-5-[1-(oxan-3-yl)azetidin-3-yl]-8-oxa-2,5,6,12,16,17-hexaazatricyclo [11.3.1.0^3,7]heptadeca-1(16)53,6,13(17),14-pentaene], the IC50 was not above 0.1 µM.
Then `Cc1c2c(nn1C1CCC(N3CCOCC3)C1)OCCCNc1nc(ncc1Cl)N2` (single isomer, unassigned) [E370, 14-Chloro-4-methyl-5-[3-(morpholin-4-yl)cyclopentyl]-8-oxa-2,5,6,12,16,17-hexaazatricyclo[11.3.1.0^3,7] heptadeca-1(16),3,6,13(17),14-pentaene], with not above 10 µM.
`CCC1CCOc2nn(C3COC3)c(C)c2Nc2ncc(Cl)c(n2)N1` (single isomer, unassigned) [E319, 14-Chloro-11-ethyl-4-methyl-5-(oxetan-3-yl)-8-oxa-2,5,6,12,16,17-hexaazatricyclo[11.3.1.0^3,7]heptadeca-1(16), 3,6,13(17),14-pentaene] showed an IC50 not above 10 µM.
On to `COCC1CCOc2nn(C3CCOCC3)c(C)c2Nc2ncc(Cl)c(n2)N1` (single isomer, unassigned) [E36, 14-chloro-11-(methoxymethyl)-4-methyl-5-(oxan-4-yl)-8-oxa-2,5,6, 12,16,17-hexaazatricyclo-[11.3.1.0^3,7]heptadeca-1(16),3,6,13(17),14-pentaene], for which the IC50 was not above 0.1 µM.
`Cc1c2c(nn1C1CCCOC1)OCC(C)CNc1nc(ncc1Cl)N2` (single isomer, unassigned) [E309, 14-Chloro-4,10-dimethyl-5-(oxan-3-yl)-8-oxa-2,5,6,12,16,17-hexaazatricyclo[11.3.1.0^3,7]heptadeca-1(16),3,6, 13(17),14-pentaene]: the IC50 is not above 0.1 µM.
